For experiment [1], the system named is MCF7. Kind of experiment: Cytotoxicity against human MCF7 cells after 72 hrs by SRB assay. It counts as functional, cell-based. To be noted: MCF7, 72 h. (In general: The SRB assay estimates cell density from bound dye.)
A short description of experiment [2]: Cytotoxicity against human NCI/ADR cells after 72 hrs by SRB assay. To be noted: NCI/ADR-RES.
Experiment [3] can be described thus: Cytotoxicity against human wild type LCC-6 cells after 72 hrs by SRB assay. To be noted: LCC-6, 72 h.
Experiment [4] in a line: Cytotoxicity against human multidrug-resistant LCC-6 cells after 72 hrs by SRB assay. To be noted: LCC-6, 72 h.
In experiment [5] the test system is A2780. Kind of experiment: Cytotoxicity against human A2780 cells after 72 hrs by SRB assay. It counts as functional, cell-based. To be noted: A2780, 72 h.
Experiment [6] relates to CFPAC-1. Kind of experiment: Cytotoxicity against human CFPAC-1 cells after 72 hrs by SRB assay. It counts as functional, cell-based. To be noted: CFPAC-1, 72 h.

Where only a bound is given, the exact number is not on record here.

For orientation: IC50 means the concentration at which inhibition is half-maximal. Read a low IC50 as greater potency.

Turning to `CC(=O)OCc1cccc2c1[C@H](OC(=O)c1ccccc1)[C@H]1C[C@H](OC(=O)[C@H](O)[C@@H](NC(=O)c3ccccc3)c3ccccc3)CN1C2=O`, the IC50 was 39.6 µM in experiment [1]; more than 100 µM in experiment [2]; 36.3 µM in experiment [3]; more than 100 µM in experiment [4]; 7.8 µM in experiment [5]; more than 100 µM in experiment [6].
`CC(=O)OCc1cccc2c1[C@H](OC(=O)c1ccccc1)[C@H]1C[C@H](OC(=O)[C@H](O)[C@@H](NC(=O)c3ccccc3)c3ccccc3)CN1C(=O)C2`: the IC50 in experiment [1] was 8.31 µM; in experiment [2], 41.5 µM; in experiment [3], 4.93 µM; in experiment [4], 16.8 µM; in experiment [5], 3.81 µM; in experiment [6] it was 6.16 µM.
Take `O=C1CC/C=C\COc2ccccc2[C@H](NC(=O)c2ccccc2)[C@@H](O)C(=O)O[C@H]2C[C@@H]3[C@@H](OC(=O)c4ccccc4)c4c(cccc4C(=O)N3C2)CO1`: the IC50 in experiment [1] is more than 100 µM; in experiment [2], more than 100 µM; in experiment [3], more than 100 µM; in experiment [4], more than 100 µM; in experiment [5] it was 14.8 µM; in experiment [6], more than 100 µM.

The record behind these values is ChEMBL document CHEMBL1250522 (Bioorg Med Chem, 2010).
